What all share (assay): Post emergence treatment, herbicidal activity on scale 0 to 100, synergism by Colby
Format in all cases: in vivo
What all share (settings): scale 0-100

The test system of experiment [1] is ERICA (Erigeron Canadensis, Conyza canadensis). The protocol: (§1) The presence of a synergistic effect in terms of percent control, between two mixing partners (X and Y) can be calculated using the Colby equation (Colby, S. R., 1967, Calculating Synergistic and Antagonistic Responses in Herbicide Combinations, Weeds, 15, 21-22):
(§2) The analysis of synergism or antagonism between the mixtures or compositions was determined using Colby's equation.
(§3) The culture containers used were plastic flowerpots containing loamy sand with approximately 3.0% of humus as the substrate. The seeds of the test plants were sown separately for each species and/or resistant biotype. […] The containers were irrigated gently to promote germination and growth and subsequently covered with transparent plastic hoods until the plants had rooted. This cover caused uniform germination of the test plants, unless this had been impaired by the active ingredients. […] For this purpose, the test plants were either sown directly and grown in the same containers, or they were first grown separately as seedlings and transplanted into the test containers a few days prior to treatment. Depending on the species, the plants were kept at 10-25° C. or 20-35° C., respectively. The test period extended to 20 days after treatment. During this time, the plants were tended, and their response to the individual treatments was evaluated. The evaluation was carried out by using a scale from 0 to 100. 100 means no emergence of the plants or complete destruction of at least the above-ground parts, and 0 means no damage, or normal course of growth. Data shown are the mean of two replications.

Experiment [2] has as its system ECHCG (Echinochloa crus-galli). The protocol: as §1, §2, §3
In experiment [3] the test system is CHEAL (Chenopodium album). The protocol: as §1, §2, §3
A further experiment relates to SETVI (Setaria viridis). The protocol:
as §1, §2, §3

Another experiment has as its system CYPIR (Cyperus iria). The protocol:
as §1, §2, §3

The subject of a further experiment is AVEFA (Avena fatua). The protocol: as §1, §2, §3
The test system of another experiment is KCHSC (Kochia scoparia). The protocol: as §1, §2, §3
Experiment [4] relates to ABUTH (Abutilon theophrasti). The protocol: as §1, §2, §3
[5] abbreviates: 2,4-D as dimethylammonium salt 70 g ai/ha.
[6] abbreviates: 2,4-D as dimethylammonium salt 140 g ai/ha.

The source of these data is patent US12137690B2, “Herbicidal mixtures comprising L-glufosinate and their use in cotton cultures” (BASF SE, priority 2017, dated 2024).

Turning to `Cc1nn(-c2cc(NS(C)(=O)=O)c(Cl)cc2Cl)c(=O)n1C(F)F` [Sulfentrazone, sulfentrazone], the “Herbicidal activity against ERICA, Found” value in experiment [1] (Sulfentrazone 1.25 g ai/ha) and in experiment [1] (Sulfentrazone 2.5 g ai/ha) was 0 each time.
Consider bicyclopyrone, for which the “Herbicidal activity against ECHCG, Found” value in experiment [2] (Bicyclopyrone 2 g ai/ha) was found to be 0.
Turning to `CCc1cccc(C)c1N(C(=O)CCl)[C@@H](C)COC` [S-Metolachlor, S-metolachlor], the “Herbicidal activity against CHEAL, Found” value turned out to be 20 in experiment [3] (S-Metolachlor 500 g ai/ha) and 75 in experiment [3] (S-Metolachlor 1000 g ai/ha).
As to `O=C(Nc1ccccc1)Nc1cnns1` [Thidiazuron], the “Herbicidal activity against SETVI, Found” value in the experiment with SETVI (Setaria viridis) (Thidiazuron 50 g ai/ha) was determined as 0.
In the case of `CCOC(=O)COc1ncccc1Oc1cc(-n2c(=O)cc(C(F)(F)F)n(C)c2=O)c(F)cc1Cl` [Compound II-83, ethyl [3-[2-chloro-4-fluoro-5-(1-methyl-6-trifluoromethyl-2,4-dioxo-1,2,3,4-tetrahydropyrimidin-3-yl)phenoxy]-2-pyridyloxy]acetate], the “Herbicidal activity against CYPIR, Found” value in the experiment with CYPIR (Cyperus iria) (Compound II-83 0.25 g ai/ha) came out at 0.
For the compound `CC(C)N(C)S(=O)(=O)NC(=O)c1cc(-n2c(=O)cc(C(F)(F)F)n(C)c2=O)c(F)cc1Cl` [Saflufenacil, saflufenacil], in experiment [2] (Saflufenacil 0.5 g ai/ha), the “Herbicidal activity against ECHCG, Found” value is on record as 0.
For the compound `CNC.O=C(O)COc1ccc(Cl)cc1Cl` [2,4-D as dimethylammonium salt, 2,4-D dimethylammonium salt], the “Herbicidal activity against AVEFA, Found” value with AVEFA (Avena fatua) (setting [5]) and in the experiment on AVEFA (Avena fatua) (setting [6]) was 0 each time. The “Herbicidal activity against SETVI, Found” value in the experiment with SETVI (Setaria viridis) (setting [5]) and in the experiment on SETVI (Setaria viridis) (setting [6]) was 0 throughout.
Consider `Cc1c(C(=O)c2cnn(C)c2O)ccc(S(C)(=O)=O)c1C1=NOCC1` [Topramezone, topramezone], for which the “Herbicidal activity against ECHCG, Found” value in experiment [2] (Topramezone 1 g ai/ha) stood at 0.
In the case of `CN(C)C(=O)Nc1ccc(Cl)c(Cl)c1` [Diuron, diuron], the “Herbicidal activity against AVEFA, Found” value with AVEFA (Avena fatua) (Diuron 125 g ai/ha) turned out to be 20; in the experiment with AVEFA (Avena fatua) (Diuron 250 g ai/ha), 30.
With `C#CCN1C(=O)C(F)(F)Oc2cc(F)c(-n3c(=O)n(C)c(=S)n(C)c3=O)cc21` [Trifludimoxazin, trifludimoxazin], the “Herbicidal activity against ECHCG, Found” value in experiment [2] (Trifludimoxazin 0.25 g ai/ha) was determined as 10.
For the compound `CNC.COc1c(Cl)ccc(Cl)c1C(=O)O` [Dicamba as dimethylammonium salt, Dicamba dimethylammonium salt], the “Herbicidal activity against SETVI, Found” value in the experiment on SETVI (Setaria viridis) (Dicamba as dimethylammonium salt 35 g ai/ha) is recorded as 0; in the experiment on SETVI (Setaria viridis) (Dicamba as dimethylammonium salt 70 g ai/ha), 0; in the experiment with SETVI (Setaria viridis) (Dicamba as dimethylammonium salt 140 g ai/ha), 30.
Turning to `COC[C@H](C)N(C(=O)CCl)c1c(C)csc1C` [Dimethenamid-P, dimethenamid-P], the “Herbicidal activity against KCHSC, Found” value in the experiment with KCHSC (Kochia scoparia) (Dimethenamid-P 500 g ai/ha) was found to be 0; with KCHSC (Kochia scoparia) (Dimethenamid-P 1000 g ai/ha) it was 70.
Turning to `CS(=O)(=O)c1ccc(C(=O)C2C(=O)CCCC2=O)c(Cl)c1COCC(F)(F)F` [Tembotrione, tembotrione], the “Herbicidal activity against ECHCG, Found” value in experiment [2] (Tembotrione 0.5 g ai/ha) came to 0.
As to `CN(C)C(=O)Nc1cccc(C(F)(F)F)c1` [Fluometuron, fluometuron], the figures for the “Herbicidal activity against ABUTH, Found” value in experiment [4] (Fluometuron 125 g ai/ha) and in experiment [4] (Fluometuron 250 g ai/ha) were 0 and 20, respectively.
Consider `CP(=O)(O)CC[C@H](N)C(=O)O` [L-Glufosinate, (2S)-2-amino-4-[hydroxy(methyl)phosphinoyl]butyric acid], for which the “Herbicidal activity against ECHCG, Found” value in experiment [2] (Example 4, L-Glufosinate 200 g ai/ha) is recorded as 0; in experiment [2] (Example 4, L-Glufosinate 400 g ai/ha), 65; in experiment [2] (Example 6, L-Glufosinate 200 g ai/ha), 0; in experiment [2] (Example 6, L-Glufosinate 400 g ai/ha), 65; in experiment [2] (Example 12, L-Glufosinate 100 g ai/ha), 0; in experiment [2] (Example 12, L-Glufosinate 200 g ai/ha), 0. The “Herbicidal activity against ECHCG, Found” value in experiment [2] (Example 13, L-Glufosinate 100 g ai/ha) is given as 0; in experiment [2] (Example 13, L-Glufosinate 200 g ai/ha), 0; in experiment [2] (Example 14, L-Glufosinate 100 g ai/ha) it was 0; in experiment [2] (Example 14, L-Glufosinate 200 g ai/ha) it was 0. In experiment [3] (L-Glufosinate 100 g ai/ha), the “Herbicidal activity against CHEAL, Found” value turned out to be 0. Further, the “Herbicidal activity against AVEFA, Found” value with AVEFA (Avena fatua) (L-Glufosinate 100 g ai/ha) is 35; in the experiment with AVEFA (Avena fatua) (L-Glufosinate 300 g ai/ha), 20. In the experiment on CYPIR (Cyperus iria) (L-Glufosinate 200 g ai/ha), the “Herbicidal activity against CYPIR, Found” value worked out at 0. For the same compound, in the experiment on KCHSC (Kochia scoparia) (L-Glufosinate 200 g ai/ha), the “Herbicidal activity against KCHSC, Found” value was 90. For the same compound, the “Herbicidal activity against ERICA, Found” value in experiment [1] (L-Glufosinate 75 g ai/ha) is on record as 90. Further, the “Herbicidal activity against SETVI, Found” value is listed as 30 in the experiment on SETVI (Setaria viridis) (Example 8, L-Glufosinate 100 g ai/ha); 30 in the experiment with SETVI (Setaria viridis) (Example 9, L-Glufosinate 100 g ai/ha); 0 with SETVI (Setaria viridis) (L-Glufosinate 75 g ai/ha); 70 with SETVI (Setaria viridis) (L-Glufosinate 150 g ai/ha). For the same compound, in experiment [4] (L-Glufosinate 75 g ai/ha), the “Herbicidal activity against ABUTH, Found” value turned out to be 0.
